Data set [1] is described as follows: Lipophilicity, logD of the compound at pH 7.4 by shake flask method. The class given is physicochemical. As to conditions: buffer.
Data set [2] can be described thus: Volume of distribution at steady state in C57BL6 mouse at 2 mg/kg, iv. The class given is ADME, organism-based. The following applies: in vivo, read-out: Vdss.
A short description of data set [3]: Tmax in C57BL6 mouse at 10 mg/kg, po. The data set is classed as ADME, organism-based. The following applies: in vivo.
Data set [4] is described as follows: Half life in C57BL6 mouse at 2 mg/kg, iv. The data set is classed as ADME, organism-based. The following applies: in vivo.
Data set [5] addresses Atypical chemokine receptor 3 (Mus musculus, UniProt P56485). In words: Binding affinity to mouse CXCR7.
Data set [6] can be described thus: Half life in C57BL6 mouse at 10 mg/kg, po. The class given is ADME, organism-based. The following applies: in vivo.
Data set [7] in a line: Half life in C57BL6 mouse at 5 mg/kg, sc. The data set is classed as ADME, organism-based. As to conditions: in vivo.
A short description of data set [8]: Cmax in C57BL6 mouse at 10 mg/kg, po. The class given is ADME, organism-based. On the set-up: route oral, dose 10 mg/kg. The following applies: in vivo.
Data set [9] is described as follows: Oral bioavailability in C57BL6 mouse at 10 mg/kg. The data set is classed as ADME, organism-based. The following applies: in vivo.
The nature of data set [10]: Protein binding in C57BL6 mouse plasma assessed as unbound fraction. The class given is ADME, cell-free.
A short description of data set [11]: Tmax in C57BL6 mouse at 5 mg/kg, sc. The data set is classed as ADME, organism-based. The following applies: in vivo.
Data set [12] can be described thus: Cmax in C57BL6 mouse at 5 mg/kg, sc. The class given is ADME, organism-based. As to conditions: in vivo. Further details: route subcutaneous, dose 5 mg/kg.
A short description of data set [13]: AUC infinity in C57BL6 mouse at 2 mg/kg, iv. The class given is ADME, organism-based. As to conditions: in vivo. Further details: time infinity, route intravenous, dose 2 mg/kg.
A short description of data set [14]: AUC infinity in C57BL6 mouse at 2 mg/kg, sc. The class given is ADME, organism-based. The following applies: in vivo. Further details: time infinity, route subcutaneous, dose 2 mg/kg.
Data set [15] is described as follows: AUC infinity in C57BL6 mouse at 10 mg/kg, po. The data set is classed as ADME, organism-based. On the set-up: route oral, time infinity, dose 10 mg/kg. The following applies: in vivo.
Data set [16] is described as follows: Unbound cmax in C57BL6 mouse. The class given is ADME. As to conditions: in vivo.
The nature of data set [17]: Bioavailability in C57BL6 mouse at 5 mg/kg, sc. The class given is ADME, organism-based. As to conditions: in vivo.

Atypical chemokine receptor 3, sequence (P56485 whole entry): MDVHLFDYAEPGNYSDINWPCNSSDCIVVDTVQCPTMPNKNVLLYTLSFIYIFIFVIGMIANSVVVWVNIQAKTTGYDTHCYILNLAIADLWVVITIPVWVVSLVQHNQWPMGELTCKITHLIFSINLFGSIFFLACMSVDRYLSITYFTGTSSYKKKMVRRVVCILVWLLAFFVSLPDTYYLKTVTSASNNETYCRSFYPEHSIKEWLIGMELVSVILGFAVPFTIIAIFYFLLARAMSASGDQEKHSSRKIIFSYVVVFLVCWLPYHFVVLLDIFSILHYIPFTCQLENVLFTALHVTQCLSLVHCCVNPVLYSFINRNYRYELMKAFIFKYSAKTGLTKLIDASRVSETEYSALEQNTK

By logD is commonly meant the decadic logarithm of the distribution of all forms, ionised or not, between an organic phase and buffer at a given pH. Regarding `COc1ccc2cccnc2c1N1CCCN(Cc2csc(-c3ccccc3)n2)CC1`, in data set [1], the logD is 3.4.

As usually defined, the Tmax is the time from dosing to the highest level. What is called half-life is how long it takes for the measured level to halve. A lower half-life goes with rapid decline. As usually defined, the Ki is a dissociation constant, usually derived from enzyme kinetics or from competition with a known ligand. Read a high Ki as a looser hold on the target. As usually defined, the Cmax is the maximum level reached in the sampled fluid or tissue. One may read the bioavailability as the share of a dose that reaches the circulation, judged against a reference dose that is usually intravenous. As a reminder, the fraction unbound is free concentration divided by total concentration. The AUC(0-inf) is total exposure, with the tail of the curve extrapolated. On to `CCN(C)C(=O)N1C[C@@H]2[C@H](C1)[C@H]2C(=O)N[C@H]1CCN(c2nccn3ccnc23)C1`, for which, in data set [2], the Vd worked out at 0.3 L/kg. Moreover, the time of peak concentration (Tmax) in [3] is 4.8 min; in [11] it was 15 min. In addition, the half-life in data set [4] is 12 min; in [6], 78 min; in data set [7], 30 min. The molecule further returned a Ki in data set [5] of 155 nM. Also, the results for the Cmax in [8] and in [12] were 185 ng/mL and 1550 ng/mL, respectively. Further, the bioavailability in [9] was determined as 5%; in data set [17] it was 71%. Moreover, the fraction unbound in data set [10] came out at 0.4. Moreover, the values for the AUC(0-inf) in data set [13], in data set [14] and in data set [15] were 864 ng·h/mL, 1530 ng·h/mL and 199 ng·h/mL, respectively. The fCmax in [16] was determined as 1.56 µM.

For the molecule `CCc1ccn2ccnc2c1N1CCCN(CC2CCN(C(=O)[C@H]3C[C@@H]4CC[C@H]3O4)CC2)CC1`, in data set [1], the logD is 0.7.

The values are drawn from ChEMBL document CHEMBL4808233, “Discovery and evaluation of non-basic small molecule modulators of the atypical chemokine receptor CXCR7” (Bioorg Med Chem Lett, 2021).
